For assay [1], the target named is T1, PI3Kα (wild-type), P110/P85α (Homo sapiens, UniProt P42336).
T1 construct: made in house; host or cells: SF9 insect cells
As to the kind of experiment: PI3 Kinase TR-FRET assay, PI3Kα (wild-type). The format is biochemical. In outline:
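Sf9-expressed His-purified P110/P85α (5 ng) preincubated 60 min RT with compound and PIP2 in buffer with 40 mM MgCl2, 5 mM DTT; reaction started with ATP (PIP2 and ATP both 10 μM), 30 min RT. PIP3 detected by TR-FRET displacement, 665/615 nm ratio; IC50 from dose-response curves.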

In another assay the target is T2, mTOR kinase (Homo sapiens, UniProt P42345).
T2 construct: purchased Millipore, USA
As to the kind of experiment: mTOR kinase TR-FRET assay. It counts as biochemical. Conditions: read-out: mTO R. The procedure, abridged:
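Compounds preincubated 60 min with mTOR (5 ng) in HEPES pH 7.5, EGTA, MnCl2; ULight-p70 S6K Thr389 peptide (50 nM) and ATP (20 μM) then added, 60 min at room temperature. EDTA-stopped, Eu-anti-phospho antibody detection by TR-FRET (665/615 nm); IC50 from variable-slope sigmoidal fit.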
For orientation: In TR-FRET formats the signal depends on donor and acceptor labels being close together.

For the next assay, the system named is PC3 cells. As to the kind of experiment: XTT assay for cell viability, PC3 cells. Conditions: Homo sapiens, PC-3, cell viability. It counts as cell-based, human. On the procedure: Using a commercial kit from Sigma Aldrich (Catalog #X34251) and following its protocol, PC3 cells in the log phase of growth were employed and seeded at an optimal density of 1000 cell/well on to 96 well plates and incubated for 24 h followed by the addition of compounds of formula (I) in serial dilutions. Compound dilutions were made in DMSO. The cells were incubated with the compounds of formula (I) for 96 h and XTT tetrazolium dye (Sigma, USA) was subsequently added and incubated at 37° C. After the color formation, absorbance was measured at 465 nm in a Spectramax® Gemini spectrophotometer. EC50 values were calculated using a sigmoidal dose response curve fit in GraphPad Prism® v5 software. The tested compounds of formula (I) which caused inhibition of PC3 cell proliferation as determined by this assay protocol are shown in Table 2.
Background: Tetrazolium assays rely on reduction of a dye to a coloured formazan, in cell work by metabolically active cells.

T1 sequence (P42336 whole entry): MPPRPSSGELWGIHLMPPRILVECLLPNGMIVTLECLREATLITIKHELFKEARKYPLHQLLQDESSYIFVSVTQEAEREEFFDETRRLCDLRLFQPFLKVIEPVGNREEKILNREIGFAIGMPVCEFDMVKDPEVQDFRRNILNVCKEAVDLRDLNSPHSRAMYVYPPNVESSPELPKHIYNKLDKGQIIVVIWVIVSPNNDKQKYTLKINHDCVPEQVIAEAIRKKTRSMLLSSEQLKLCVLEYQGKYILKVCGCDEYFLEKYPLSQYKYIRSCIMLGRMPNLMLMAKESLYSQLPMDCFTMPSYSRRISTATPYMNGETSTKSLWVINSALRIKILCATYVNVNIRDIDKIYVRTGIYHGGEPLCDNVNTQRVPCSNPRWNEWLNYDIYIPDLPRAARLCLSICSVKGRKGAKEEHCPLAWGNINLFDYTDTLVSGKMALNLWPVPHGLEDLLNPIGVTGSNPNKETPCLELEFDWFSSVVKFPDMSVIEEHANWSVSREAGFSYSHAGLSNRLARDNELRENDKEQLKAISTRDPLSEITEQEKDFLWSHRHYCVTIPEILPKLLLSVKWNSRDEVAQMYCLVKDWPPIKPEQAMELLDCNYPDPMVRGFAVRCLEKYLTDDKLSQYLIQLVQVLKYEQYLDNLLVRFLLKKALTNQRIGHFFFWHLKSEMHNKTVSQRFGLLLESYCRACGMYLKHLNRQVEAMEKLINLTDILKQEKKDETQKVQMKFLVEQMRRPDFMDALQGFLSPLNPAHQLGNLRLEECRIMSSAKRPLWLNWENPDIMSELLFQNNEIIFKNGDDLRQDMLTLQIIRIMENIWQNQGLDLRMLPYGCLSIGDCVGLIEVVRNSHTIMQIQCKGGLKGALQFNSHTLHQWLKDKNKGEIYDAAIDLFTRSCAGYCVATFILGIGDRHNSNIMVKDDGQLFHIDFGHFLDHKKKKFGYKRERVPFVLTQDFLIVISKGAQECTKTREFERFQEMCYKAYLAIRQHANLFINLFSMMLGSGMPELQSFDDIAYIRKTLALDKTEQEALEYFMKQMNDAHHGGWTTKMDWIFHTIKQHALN
T1 sequence (P27986 whole entry partner): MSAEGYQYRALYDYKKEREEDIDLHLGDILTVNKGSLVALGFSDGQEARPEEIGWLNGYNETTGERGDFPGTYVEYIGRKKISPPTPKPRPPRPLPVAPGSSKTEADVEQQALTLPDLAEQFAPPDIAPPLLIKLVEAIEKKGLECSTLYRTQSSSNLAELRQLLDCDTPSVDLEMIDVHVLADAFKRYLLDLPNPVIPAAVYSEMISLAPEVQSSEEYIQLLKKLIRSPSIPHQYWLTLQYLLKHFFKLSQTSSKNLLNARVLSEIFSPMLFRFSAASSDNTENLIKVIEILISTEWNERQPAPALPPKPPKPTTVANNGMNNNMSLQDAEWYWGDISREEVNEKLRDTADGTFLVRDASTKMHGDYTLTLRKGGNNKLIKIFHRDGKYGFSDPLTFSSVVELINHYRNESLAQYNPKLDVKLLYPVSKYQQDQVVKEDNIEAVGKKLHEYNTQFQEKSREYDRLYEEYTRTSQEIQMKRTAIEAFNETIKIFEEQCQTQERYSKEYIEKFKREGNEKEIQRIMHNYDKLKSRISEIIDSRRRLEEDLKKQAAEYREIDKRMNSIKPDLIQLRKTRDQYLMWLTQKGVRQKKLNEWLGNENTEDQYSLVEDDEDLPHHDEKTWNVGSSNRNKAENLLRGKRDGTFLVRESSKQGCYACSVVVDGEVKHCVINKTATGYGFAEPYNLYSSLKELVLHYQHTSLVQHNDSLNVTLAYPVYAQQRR

For the molecule `CN(C)C(=O)c1ccc(NC(=O)Nc2ccc(-c3nc(N4CCOCC4)c4cc(F)c(-c5cncc(S(C)(=O)=O)c5)cc4n3)cc2)cc1` [Example 38, 4-(3-{4-[6-fluoro-7-(5-methanesulfonyl-pyridin-3-yl)-4-morpholin-4-yl-quinazolin-2-yl]-phenyl}-ureido)-N,N-dimethyl-benzamide], the results for the IC50 (in assay [1]; on mTOR kinase; in the assay on PC3 cells) were below 0.05 µM, below 0.05 µM and below 0.1 µM, respectively.
With `CN(C)C(=O)c1ccc(NC(=O)Nc2ccc(-c3nc(N4CCOCC4)c4ncc(-c5cccc(S(C)(=O)=O)c5)cc4n3)cc2)cc1` [Example 39, 4-(3-{4-[7-(3-methanesulfonyl-phenyl)-4-morpholin-4-yl-pyrido[3,2-d]pyrimidin-2-yl]-phenyl}-ureido)-N,N-dimethyl-benzamide], the IC50 is below 0.05 µM in assay [1], below 0.05 µM on mTOR kinase and below 0.1 µM in the assay on PC3 cells.
On to `Cc1ccc(-c2cnc3c(N4CCOCC4)nc(-c4ccc(NC(=O)Nc5ccc(C(=O)N(C)C)cc5)cc4)nc3c2)o1` [Example 43, N,N-dimethyl-4-(3-{4-[7-(5-methyl-furan-2-yl)-4-morpholin-4-yl-pyrido[3,2-d]pyrimidin-2-yl]-phenyl}-ureido)-benzamide], for which the IC50 in assay [1] is below 0.05 µM; at mTOR kinase it was below 0.05 µM; with PC3 cells it was 0.1 to 0.5 µM.
Take `CN(C)C(=O)c1ccc(NC(=O)Nc2ccc(-c3nc(N4CCOCC4)c4ccc(-c5cccc(CO)c5)cc4n3)cc2)cc1` [Example 45, 4-(3-{4-[7-(3-hydroxymethyl-phenyl)-4-morpholin-4-yl-quinazolin-2-yl]-phenyl}-ureido)-N,N-dimethyl-benzamide]: the IC50 was below 0.05 µM in assay [1], below 0.05 µM at mTOR kinase and below 0.1 µM in the assay with PC3 cells.
For the molecule `CN(C)C(=O)c1ccc(NC(=O)Nc2ccc(-c3nc(N4CCOCC4)c4ccc(-c5ccsc5)cc4n3)cc2)cc1` [Example 52, N,N-dimethyl-4-{3-[4-(4-morpholin-4-yl-7-thiophen-3-yl-quinazolin-2-yl)-phenyl]-ureido}-benzamide], the IC50 is below 0.05 µM in assay [1], 0.05 to 0.2 µM at mTOR kinase and 0.1 to 0.5 µM in the assay with PC3 cells.
In the same order, the values of `CN(C)C(=O)c1ccc(NC(=O)Nc2ccc(-c3nc(N4CCOCC4)c4ccc(-c5ccoc5)cc4n3)cc2)cc1` [Example 53, 4-{3-[4-(7-furan-3-yl-4-morpholin-4-yl-quinazolin-2-yl)-phenyl]-ureido}-N,N-dimethyl-benzamide] are 0.05 to 0.2 µM, 0.05 to 0.2 µM and 0.1 to 0.5 µM.
In the same order, the values of `CN(C)C(=O)c1ccc(NC(=O)Nc2ccc(-c3nc(N4CCOCC4)c4ccc(-c5ccncc5)cc4n3)cc2)cc1` [Example 58, N,N-dimethyl-4-{3-[4-(4-morpholin-4-yl-7-pyridin-4-yl-quinazolin-2-yl)-phenyl]-ureido}-benzamide] are below 0.05 µM, below 0.05 µM and 0.501 to 5 µM.
In the same order, the values of `CN(C)C(=O)c1ccc(NC(=O)Nc2ccc(-c3nc(N4CCOCC4)c4ccc(-c5cnc6ccccc6c5)cc4n3)cc2)cc1` [Example 59, N,N-dimethyl-4-{3-[4-(4-morpholin-4-yl-7-quinolin-3-yl-quinazolin-2-yl)-phenyl]-ureido}-benzamide] are below 0.05 µM, below 0.05 µM and below 0.1 µM.
For `COc1ccc(-c2ccc3c(N4CCOCC4)nc(-c4ccc(NC(=O)Nc5ccc(C(=O)N(C)C)cc5)cc4)nc3c2)cn1` [Example 60, 4-(3-{4-[7-(6-methoxy-pyridin-3-yl)-4-morpholin-4-yl-quinazolin-2-yl]-phenyl}-ureido)-N,N-dimethyl-benzamide], the IC50 was below 0.05 µM in assay [1], below 0.05 µM at mTOR kinase and 0.1 to 0.5 µM in the assay on PC3 cells.
Take `CN1CCN(C(=O)c2ccc(NC(=O)Nc3ccc(-c4nc(N5CCOCC5)c5ncc(-c6cncnc6)cc5n4)cc3)cc2)CC1` [Example 67, 1-[4-(4-methyl-piperazine-1-carbonyl)-phenyl]-3-[4-(4-morpholin-4-yl-7-pyrimidin-5-yl-pyrido[3,2-d]pyrimidin-2-yl)-phenyl]-urea]: the IC50 in assay [1] is below 0.05 µM; at mTOR kinase, below 0.05 µM; with PC3 cells, 0.1 to 0.5 µM.
Regarding `CN(C)C(=O)c1ccc(NC(=O)Nc2ccc(-c3nc(N4CCOCC4)c4ccc(-c5ccnc(F)c5)cc4n3)cc2)cc1` [Example 68, 4-(3-{4-[7-(2-fluoro-pyridin-4-yl)-4-morpholin-4-yl-quinazolin-2-yl]-phenyl}-ureido)-N,N-dimethyl-benzamide], the IC50 in assay [1] is below 0.05 µM; at mTOR kinase, below 0.05 µM; in the assay on PC3 cells, 0.501 to 5 µM.
`Cc1ccc(-c2ccc3c(N4CCOCC4)nc(-c4ccc(NC(=O)Nc5ccc(C(=O)N6CCN(C)CC6)cc5)cc4)nc3c2)o1` [Example 70, 1-{4-[7-(5-methyl-furan-2-yl)-4-morpholin-4-yl-quinazolin-2-yl]-phenyl}-3-[4-(4-methyl-piperazine-1-carbonyl)-phenyl]-urea]: the IC50 was in the range of 0.05 to 0.2 µM in assay [1], 0.05 to 0.2 µM on mTOR kinase and 0.501 to 5 µM with PC3 cells.
As to `CN1CCN(C(=O)c2ccc(NC(=O)Nc3ccc(-c4nc(N5CCOCC5)c5ncc(-c6cnn(C)c6)cc5n4)cc3)cc2)CC1` [Example 73, 1-[4-(4-methyl-piperazine-1-carbonyl)-phenyl]-3-{4-[7-(1-methyl-1H-pyrazol-4-yl)-4-morpholin-4-yl-pyrido[3,2-d]pyrimidin-2-yl]-phenyl}-urea], the figures for the IC50 (in assay [1]; on mTOR kinase; in the assay with PC3 cells) were below 0.05 µM, below 0.05 µM and 0.501 to 5 µM, respectively.
Turning to `CN(C)C(=O)c1ccc(NC(=O)Nc2ccc(-c3nc(N4CCOCC4)c4ccc(-c5cccs5)cc4n3)cc2)cc1` [Example 74, N,N-dimethyl-4-{3-[4-(4-morpholin-4-yl-7-thiophen-2-yl-quinazolin-2-yl)-phenyl]-ureido}-benzamide], the IC50 in assay [1] was below 0.05 µM; on mTOR kinase, 0.05 to 0.2 µM; with PC3 cells it was 0.501 to 5 µM.
In the same order, the values of `COc1ncc(-c2ccc3c(N4CCOCC4)nc(-c4ccc(NC(=O)Nc5ccc(C(=O)N(C)C)cc5)cc4)nc3c2)cn1` [Example 75, 4-(3-{4-[7-(2-methoxy-pyrimidin-5-yl)-4-morpholin-4-yl-quinazolin-2-yl]-phenyl}-ureido)-N,N-dimethyl-benzamide] are below 0.05 µM, below 0.05 µM and below 0.1 µM.
Regarding `CN1CCN(C(=O)c2ccc(NC(=O)Nc3ccc(-c4nc(N5CCOCC5)c5ccc(-c6cncnc6)cc5n4)cc3)cc2)CC1` [Example 79, 1-[4-(4-methyl-piperazine-1-carbonyl)-phenyl]-3-[4-(4-morpholin-4-yl-7-pyrimidin-5-yl-quinazolin-2-yl)-phenyl]-urea], the values for the IC50 (in assay [1]; at mTOR kinase; in the assay on PC3 cells) were 0.201 to 10 µM, below 0.05 µM and 0.501 to 5 µM, respectively.
As to `Cc1ccncc1-c1cnc2c(N3CCOCC3)nc(-c3ccc(NC(=O)Nc4ccc(C(=O)N(C)C)cc4)c(F)c3)nc2c1` [Example 116, 4-(3-(2-fluoro-4-(7-(4-methylpyridin-3-yl)-4-morpholino-pyrido[3,2-d]pyrimidin-2-yl)phenyl)ureido)-N,N-dimethyl-benzamide], the IC50 in assay [1] was in the range of 0.05 to 0.2 µM; at mTOR kinase it was 0.05 to 0.2 µM; with PC3 cells, 0.501 to 5 µM.
As to `CN(C)C(=O)c1ccc(NC(=O)Nc2ccc(-c3nc(N4CCOCC4)c4ncc(-c5cnn(C)c5)cc4n3)cc2F)cn1` [Example 124, 5-(3-(2-fluoro-4-(7-(1-methyl-1H-pyrazol-4-yl)-4-morpholino-pyrido[3,2-d]pyrimidin-2-yl)phenyl)ureido)-N,N-dimethylpicolinamide], the IC50 is below 0.05 µM in assay [1], below 0.05 µM on mTOR kinase and 0.201 to 10 µM in the assay with PC3 cells.
Consider `Cc1noc(C)c1-c1cnc2c(N3CCOCC3)nc(-c3ccc(NC(=O)Nc4ccc(C(=O)N(C)C)cc4)c(F)c3)nc2c1` [Example 135, 4-(3-(4-(7-(3,5-dimethylisoxazol-4-yl)-4-morpholino-pyrido[3,2-d]pyrimidin-2-yl)-2-fluorophenyl)ureido)-N,N-dimethyl-benzamide], for which the IC50 is below 0.05 µM in assay [1], below 0.05 µM at mTOR kinase and 0.201 to 10 µM with PC3 cells.
Take `CC1CN(c2nc(-c3ccc(NC(=O)Nc4ccc(C(=O)N(C)C)cc4)cc3)nc3cc(-c4cncnc4)ccc23)CCO1` (stereo not drawn) [Example 138, N,N-dimethyl-4-(3-(4-(4-(2-methylmorpholino)-7-(pyrimidin-5-yl)quinazolin-2-yl)phenyl)ureido)-benzamide]: the IC50 in assay [1] was below 0.05 µM; at mTOR kinase, below 0.05 µM; in the assay with PC3 cells it was 0.201 to 10 µM.
`Cc1noc(C)c1-c1cc2nc(-c3ccc(NC(=O)Nc4ccc(C(=O)N(C)C)cc4)cc3)nc(N3CCOCC3)c2cc1F` [Example 143, 4-(3-(4-(7-(3,5-dimethylisoxazol-4-yl)-6-fluoro-4-morpholino-quinazolin-2-yl)phenyl)ureido)-N,N-dimethyl-benzamide]: the IC50 is 0.05 to 0.2 µM in assay [1], below 0.05 µM on mTOR kinase and 0.201 to 10 µM in the assay on PC3 cells.

The values above are taken from patent US9115092B2, “Substituted quinazoline and pyrido-pyrimidine derivatives” (Asana Biosciences, LLC, priority 2010, dated 2015).
